Test results as given in PubChem BioAssay AID463206 (Broad Institute, 2010).
Activity calls are given as the source filed them.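 How the source made its calls: active means caspase luminescence falls with dose and the half-maximal concentration AC50 from the fitted curve is at or below a set limit; inconclusive means flat fit at 30 to 70% signal loss, or invalid fit; inactive means AC50 above the limit, or signal rises instead.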

system: INS-1E cytokine-induced caspase-3/7, Caspase-Glo luminescence, 48 h; assay: inhibitors of cytokine-induced caspase-3/7 activity, dose response, orthogonal assay for beta-cell apoptosis protection project, INS-1E rat cells, luminescence (AID 463206)

| SMILES | AC50 |
| --- | --- |
| COc1cccc(F)c1C(C[N+](=O)[O-])c1c(N)n(C)c(=O)n(C)c1=O (stereo not given) | > 26 µM (inactive) |
| Cn1nc(C(C)(C)C)cc1C(=O)NCc1cc(F)cc2c1OCOC2 | > 26 µM (inactive) |
| CC(C)c1ccccc1-n1c(SCC(=O)N2CCc3ccccc3C2)nc2ccccc2c1=O | > 26 µM (inactive) |
| Cc1[nH]c(N=Nc2ccccc2)nc1N=Nc1ccccc1 | > 26 µM (inactive) |
| Cc1ccc(NC(=O)Nc2cccc([N+](=O)[O-])c2)cc1F | > 26 µM (inactive) |
| COc1ccc(C2NCCc3c2[nH]c2ccccc32)cc1COc1ccc(F)cc1 (stereo not given) | > 26 µM (inactive) |
| O=[N+]([O-])c1ccc(NC(=S)NCCc2ccc(Cl)cc2)cc1 | > 26 µM (inactive) |
| CC(C)(C)C(=O)Nc1ccc(C(=O)N/N=C/c2ccccc2OC(=O)c2ccc(Cl)cc2)cc1 | > 26 µM (inactive) |
| CCn1cc(C(=O)O)c(=O)c2cc(F)c(N/N=C/c3ccccc3[N+](=O)[O-])cc21 | > 12 µM (inactive) |
| CC(=O)Oc1c(Cl)cc(N(C(C)=O)S(=O)(=O)c2ccccc2)c2ccccc12 | > 26 µM (inactive) |
| COc1ccc(OC)c(NC(=O)CSc2nnc(-c3cccnc3)s2)c1 | > 26 µM (inactive) |
| CCOc1ccc2nc(NC(=O)c3cccc(-c4cc5ccccc5oc4=O)c3)sc2c1 | > 26 µM (inactive) |
| O=Nc1c(O)c2ccccc2c2ccccc12 | > 26 µM (inactive) |
| Cc1ccc(C(C)C)c(OCc2ccc(C(=O)N/N=C/c3ccc(O)cc3O)cc2)c1 | > 26 µM (inactive) |
| Cc1c(C)c2cccnc2c2ncccc12 | > 26 µM (inactive) |
| Cc1ccc(Oc2nc(-c3ccccn3)nc3ccccc23)cc1 | > 26 µM (inactive) |
| CCCCCc1ccc(OCCCC[n+]2ccc(C)cc2)c(CCCCC)c1 | > 26 µM (inactive) |
| O=C(N/N=C/c1cc(Br)ccc1OC(=O)c1ccc(Br)cc1)c1ccncc1 | > 26 µM (inactive) |
| CC1=CC2/C=C(\C)CCC(O)C(O)/C=C/C(=O)C23C(=O)NC(CC(C)C)C3C1C (stereo not given) | > 26 µM (inactive) |
| COc1cccc(/C=N/Nc2nc3ccccc3n3cnnc23)c1O | > 26 µM (inactive) |
| COC(=O)c1cccc(NC(=O)Nc2ccc(Cl)c(Cl)c2)c1 | > 26 µM (inactive) |
| CCN1/C(=C/C=C/c2oc3ccc(-c4ccccc4)cc3[n+]2CC)Oc2ccc(-c3ccccc3)cc21 | > 26 µM (inactive) |
| C/C(=N\NC(=O)c1ccccc1OCc1ccc(F)cc1)c1ccccn1 | > 26 µM (inactive) |
| O=C(N/N=C/c1ccccc1O)C1CC(=O)N(c2ccc(Cl)cc2)C1 (stereo not given) | > 26 µM (inactive) |

| SMILES | AC50 |
| --- | --- |
| O=C(N/N=C/c1cc([N+](=O)[O-])ccc1O)c1cccc2cc[nH]c12 | > 26 µM (inactive) |
| CC1(C(=O)OCC(=O)N2c3ccccc3Sc3ccccc32)CC1(Cl)Cl (stereo not given) | > 26 µM (inactive) |
| Cc1noc(-c2ccc(C(F)(F)F)cc2)c1NC(=O)Nc1ccc(Cl)cc1 | > 26 µM (inactive) |
| NC1=NC[C@@H](CC2CCCCC2)N1CCc1cc(C(F)(F)F)cc(C(F)(F)F)c1 | > 26 µM (inactive) |
| Cc1cccc(NC(=O)/C=C/c2ccc([N+](=O)[O-])s2)c1 | 2.71 µM |
| CNC[C@H](Cc1ccccc1)NC[C@@H](Cc1cccc2ccccc12)NCCc1ccc(C)cc1 | > 26 µM (inactive) |
| Cc1sc2cc3c(c(C(=O)c4ccccc4)[n+]2c1C)-c1cccc2cccc-3c12 | > 26 µM (inactive) |
| Cc1ccc(S(=O)(=O)Nc2ccc(C(OC(=O)c3ccccc3[N+](=O)[O-])(C(F)(F)F)C(F)(F)F)cc2)cc1 | > 26 µM (inactive) |
| CCCC(=O)N(CCN(C(=O)CCC)c1ccccc1)c1ccccc1 | > 26 µM (inactive) |
| Cc1ccc(S(=O)(=O)CC2CSc3nc4ccccc4n32)cc1 (stereo not given) | > 12 µM (inactive) |
| Cc1ccccc1N=Nc1ccc(O)c2ncccc12 | > 26 µM (inactive) |
| O=[N+]([O-])c1cc(CN2CCN(c3ccccc3)CC2)c(O)c2ncccc12 | > 26 µM (inactive) |
| Oc1cc(-c2ccc(N3CCCCC3)nc2)cc2cccnc12 | > 26 µM (inactive) |
| Cc1oc2c(c1C(=O)N1CCC(C)CC1)C(=O)c1ccccc1C2=O | > 26 µM (inactive) |
| Cc1cc(C)n(CCC(=O)N/N=C/c2c(O)ccc3ccccc23)n1 | > 26 µM (inactive) |
| COc1cc(C(=O)Oc2ccccc2/C=N/NC(=O)c2ccc(C)c(Cl)c2)cc(OC)c1OC | > 26 µM (inactive) |
| O=C(Nc1ccc(-c2noc(-c3cccs3)n2)cc1)c1cccnc1 | > 26 µM (inactive) |
| O=C(/C=C/c1ccc(F)cc1)NC(=S)NNC(=O)c1cnccn1 | > 26 µM (inactive) |
| O=C(CNC(=O)c1ccccc1)N/N=C/c1cc(Br)ccc1O | > 26 µM (inactive) |
| Cc1ccc2nc(NC(=O)c3ccccn3)sc2c1 | > 26 µM (inactive) |
| Cn1ncnc2c(=O)n(C)c(=O)nc1-2 | > 26 µM (inactive) |
| CCCOc1ccc(CSc2nc3ccccc3[nH]2)cc1 | > 26 µM (inactive) |
| O=C(Nc1cc(-c2ccccc2)nn1C1CCCCC1)c1ccc(Cl)cc1 | > 26 µM (inactive) |
| C#CCOCCOCCOCCNc1nc(N2CCN(C(=O)CCCCCCCCCCNC(=O)[C@H]([C@@H](C)CC)n3cc(CCCCCN)nn3)CC2)nc(N2CCN(C(=O)CCCCCCCCCCNC(=O)[C@H]([C@@H](C)CC)n3cc(CCCCN=C(N)N)nn3)CC2)n1 | > 26 µM (inactive) |

| SMILES | AC50 |
| --- | --- |
| Cc1ccc(C(=O)Nc2nc(-c3ccccn3)cs2)s1 | > 26 µM (inactive) |
| Cc1nc(NC(=O)C23CC4CC(CC(C4)C2)C3)sc1Cc1ccc2c(c1)OCO2 | > 26 µM (inactive) |
| COCCCNC(=S)N/N=C/c1cccc(OC)c1O | > 26 µM (inactive) |
| COc1ccc(C(=O)NC(=S)NNC(=O)c2cnccn2)cc1OC | > 26 µM (inactive) |
| Cc1cc(C2CCCCC2)n(O)c(=O)c1 | > 26 µM (inactive) |
| COc1ccc(OCc2n(CC(=O)OC3CC(C)CCC3C(C)C)c3ccccc3[n+]2C)cc1 (stereo not given) | > 26 µM (inactive) |
| COc1cccc(/C=N/Nc2snc(SC)c2C#N)c1O | > 26 µM (inactive) |
| CC(=O)c1ccccc1OCCOCCOc1ccccc1C(C)=O | > 26 µM (inactive) |
| CCCCCCCCCCOC(=O)Cn1c(COc2ccccc2OC)[n+](C)c2ccccc21 | > 26 µM (inactive) |
| COc1ccc(Br)cc1CN(C)CC(=O)NCc1ccc(F)cc1 | > 26 µM (inactive) |
| OCCCNc1c2ccccc2nc2ccccc12 | 7.37 µM |
| COc1ccc(/C=N/N2CCN(Cc3ccccc3)CC2)cc1 | > 26 µM (inactive) |
| CCCCCCCCCCn1ccc(=N)cc1 | > 26 µM (inactive) |
| CCN1/C(=C/c2ccc3cc(C)ccc3[n+]2CC)Sc2ccc3sccc3c21 | > 26 µM (inactive) |
| Cc1cc(C)n(Cc2ccc(NC(=O)c3ccc(COc4ccccc4Br)cc3)cc2)n1 | > 26 µM (inactive) |
| COc1cc(C(=O)Oc2c(CN3CCOCC3)cc(Cl)c3cccnc23)cc(OC)c1OC | > 26 µM (inactive) |
| NC(N)=N/N=C/c1ccc(OCc2ccccc2)cc1 | > 26 µM (inactive) |
| C#CCOCCOCCOCCNc1nc(N2CCN(C(=O)CCCCCCCCCCNC(=O)[C@H](CCCCN)n3cc(C[C@@H](C)CC)nn3)CC2)nc(N2CCN(C(=O)CCCCCCCCCCNC(=O)[C@@H]([C@H](C)O)n3cc(C)nn3)CC2)n1 | > 26 µM (inactive) |
| O=S(=O)(c1ccc(NC(=S)NCc2cccnc2)cc1)N1CCCCC1 | > 26 µM (inactive) |
| Cc1ccc(S(=O)(=O)Nc2cc(Cl)c(O)c3ncccc23)cc1 | > 26 µM (inactive) |
| O=S(=O)(c1cccs1)N1CCN(CC(O)COc2cc(Cl)ccc2Cl)CC1 (stereo not given) | > 26 µM (inactive) |
| CC1CCN(Cc2c(C(=O)N/N=C/c3cc(Cl)ccc3O)nnn2-c2nonc2N)CC1 | > 26 µM (inactive) |
| COc1ccc(-[n+]2c(C)cc(/C=C3\Sc4ccccc4N3C)cc2C)cc1 | > 26 µM (inactive) |
| c1ccc(-c2nnc(CSc3ccc4c(c3)OCCO4)o2)cc1 | > 26 µM (inactive) |

| SMILES | AC50 |
| --- | --- |
| CN(C)c1cc[n+](CC(=O)Nc2ccc(Oc3ccccc3)cc2)cc1 | > 26 µM (inactive) |
| c1ccc2c(c1)OCC(CNc1ncnc3sccc13)O2 (stereo not given) | > 26 µM (inactive) |
| CN(C)c1ccc(-c2cc(O)c3ncccc3c2)cc1 | > 26 µM (inactive) |
| CS(=O)(=O)N(CC(=O)Nc1ccc(CC#N)cc1)c1ccc(C23CC4CC(CC(C4)C2)C3)cc1 | > 26 µM (inactive) |
| Oc1ccc(Nc2nc(-c3ccc4ccccc4c3)cs2)cc1 | > 26 µM (inactive) |
| C/C(=N\Nc1ccc2nncn2n1)c1ccccn1 | > 26 µM (inactive) |
| COc1cccc(/C=N/NC(=O)C(=O)Nc2ccccc2OC(F)(F)C(F)F)c1O | > 26 µM (inactive) |
| C=CCN1C(=O)N/C(=C/c2ccc(N3CCOCC3)o2)C1=O | > 12 µM (inactive) |
| CCCCCCn1c2c(c(=N)c3c1CCC3)CCC2 | > 26 µM (inactive) |
| O=C(COc1ccc(Br)cc1)N1CCN(Cc2c[nH]c3ccccc23)CC1 | > 26 µM (inactive) |
| O=[N+]([O-])c1cccc2c(N3CCCC3)ccnc12 | > 26 µM (inactive) |
| COc1ccccc1N1CCN(Cc2ccc(O)c3ncccc23)CC1 | > 26 µM (inactive) |
| COc1ccc2cc(C(=O)N/N=C/c3sc4ccccc4c3O)ccc2c1 | > 26 µM (inactive) |
| CCN(CC)S(=O)(=O)c1cccc(NC(=O)Nc2cccc(C(F)(F)F)c2)c1 | > 26 µM (inactive) |
| N/C(=N\NC(=O)c1sccc1OCc1ccc(Cl)cc1Cl)c1ccccn1 | > 26 µM (inactive) |
| CN(C)CCCn1cnc2c(c1=N)C(c1ccccc1)c1ccc3ccccc3c1O2 (stereo not given) | 9.99 µM |
| Cc1ccc(-c2cc(-c3ccccc3)cc(-c3ccccc3)[n+]2-c2ccccc2)cc1 | > 26 µM (inactive) |
| Cc1ccc(Nc2c(-c3ccccn3)nc3cccc(C)n23)cc1 | > 26 µM (inactive) |
| CC(=O)Oc1c(C)cc(Cl)cc1C(=O)Nc1ccc([N+](=O)[O-])cc1Cl | > 26 µM (inactive) |
| CCc1cc(C(=O)NC2CCCc3c2cnn3-c2cccc(C)c2C)n(C)n1 (stereo not given) | > 26 µM (inactive) |
| CCOC(=O)CS(=O)(=O)c1nc(-c2ccccc2)cc(C(F)(F)F)n1 | > 26 µM (inactive) |
| Cc1cc(C)cc(OCC(O)CN2CCC(CN3C(=O)c4cccc5cccc(c45)C3=O)CC2)c1 (stereo not given) | > 26 µM (inactive) |
| Cc1ccccc1NC(=S)N/N=C/c1ccc(O)cc1O | > 26 µM (inactive) |
